Assay results taken from PMC9221290, “Alkaloids of Dicranostigma franchetianum (Papaveraceae) and Berberine Derivatives as a New Class of Antimycobacterial Agents” (Biomolecules, 2022).
≈ marks a conversion by molar mass, not a printed value. Read-outs that look alike come from different tables or passages of the source.

Columns and labels:
[1] = tested on: Mycobacterium kansasii DSM 44162 (ATCC 12478); experiment: Antimycobacterial microdilution broth assay (resazurin), M. kansasii; assay type: cell-based; conditions: 96 h; for MIC: Mycobacterium kansasii, read-out: MIC M. kansasii, microdilution broth, resazurin, 96 h
[2] = tested on: Mtb H37Ra ITM-M006710 (ATCC 9431); experiment: Antimycobacterial microdilution broth assay (resazurin), Mtb H37Ra; assay type: cell-based, Mycobacterium tuberculosis; conditions: for MIC: Mycobacterium tuberculosis
[3] = tested on: Mycolicibacterium aurum DSM 43999 (ATCC 23366); experiment: Antimycobacterial microdilution broth assay (resazurin), M. aurum; assay type: cell-based; conditions: 72 h; for MIC M. aurum: microdilution broth, resazurin; for MIC: Mycolicibacterium aurum, read-out: MIC M. aurum, microdilution broth, resazurin, 72 h
[4] = tested on: Mycolicibacterium smegmatis DSM 43465 (ATCC 607); experiment: Antimycobacterial microdilution broth assay (resazurin), M. smegmatis; assay type: cell-based; conditions: 48 h; for MIC: Mycolicibacterium smegmatis, read-out: MIC M. smegmatis, microdilution broth, resazurin, 48 h; for MIC M. smegmatis: microdilution broth, resazurin
[5] = tested on: Mycobacterium avium DSM 44156 (ATCC 25291); experiment: Antimycobacterial microdilution broth assay (resazurin), M. avium; assay type: cell-based; conditions: 96 h; for MIC: Mycobacterium avium, read-out: MIC M. avium, microdilution broth, resazurin, 96 h
[6] = 120 h, microdilution broth, resazurin, 120 h, read-out: MIC Mtb H37Ra
[7] = calculated from MIC (µg/mL) and MW, read-out: MIC Mtb H37Ra
[8] = microdilution broth, resazurin, 120 h
[9] = 120 h, read-out: MIC Mtb H37Ra, microdilution broth, resazurin, 120 h
[10] = read-out: MIC Mtb H37Ra (µM), calculated from MIC (µg/mL) and MW

| Structure (SMILES) | MIC [1] [µg/mL] | MIC M. kansasii ([1]; microdilution broth, resazurin) [µg/mL] | MIC [2, 6] [µg/mL] | MIC [2, 7] [µM] | MIC Mtb H37Ra [2, 8] [µg/mL] | MIC M. aurum [3] [µg/mL] | MIC M. aurum ([3]; listed as INH) [µg/mL] | MIC [4] [µg/mL] | MIC M. smegmatis [4] [µg/mL] | MIC [5] [µg/mL] | MIC M. avium ([5]; microdilution broth, resazurin) [µg/mL] | MIC [2, 9] [µg/mL] | MIC [2, 10] [µM] | MIC [3] [µg/mL] | MIC M. aurum ([3]; listed as CPX) [µg/mL] |
| --- | --- | --- | --- | --- | --- | --- | --- | --- | --- | --- | --- | --- | --- | --- | --- |
| NNC(=O)c1ccncc1 [isoniazid, reference compound] | 3.12 to 6.25 (≈ 22.8 to 45.6 µM) | 6.25 (≈ 45.6 µM) | 0.125 to 0.25 | 1.82 | 0.25 (≈ 1.82 µM) | 3.91 (≈ 28.5 µM) | 1.95 to 3.91 | 15.6 to 31.2 (≈ 114 to 228 µM) | 31.25 (≈ 228 µM) | 500 to 1000 (≈ 3650 to 7290 µM) | 500 (≈ 3650 µM) |  |  |  |  |
| COc1cc2c(cc1O)[C@@H]1Cc3ccc(OC)c(OC)c3CN1CC2 [compound 13, isocorypalmine] | ≥ 250 |  |  |  |  |  |  | ≥ 250 |  | ≥ 250 |  | ≥ 250 | ≥ 733 | ≥ 250 |  |
| COc1ccc2c(c1O)-c1c(OC)c(OC)cc3c1[C@H](C2)N(C)CC3 [compound 10, isocorydine] | 125 (≈ 366 µM) |  | ≥ 500 | ≥ 1430 |  |  |  | ≥ 500 |  | ≥ 500 |  |  |  | ≥ 500 |  |
| O=C(O)c1cn(C2CC2)c2cc(N3CCNCC3)c(F)cc2c1=O [ciprofloxacin, reference compound] | 0.25 (≈ 0.754 µM) |  | 0.125 to 0.25 | 0.75 | 0.25 (≈ 0.754 µM) | 0.01562 (≈ 0.0471 µM) |  | 0.0625 to 0.125 (≈ 0.189 to 0.377 µM) | 0.0625 (≈ 0.189 µM) | 0.5 (≈ 1.51 µM) |  |  |  |  | 0.0078 to 0.0156 |
| COc1ccc2c(c1OC)CN(C)CCc1cc3c(cc1C(=O)C2)OCO3 [compound 7, allocryptopine] | 250 (≈ 677 µM) |  | ≥ 250 | ≥ 678 |  |  |  | ≥ 250 |  | ≥ 250 |  |  |  | ≥ 250 |  |
| COc1cc2c(cc1O)[C@@H]1Cc3ccc(OC)c(O)c3CN1CC2 [compound 15, scoulerine] | 15.6 (≈ 47.7 µM) |  | 250 | 764 |  |  |  | 125 (≈ 382 µM) |  | 250 (≈ 764 µM) |  |  |  | 125 (≈ 382 µM) |  |
| COc1cc2c(cc1OC)C(=O)Cc1ccc3c(c1CN(C)CC2)OCO3 [compound 8, cryptopine] | ≥ 125 |  | ≥ 125 | ≥ 339 |  |  |  | ≥ 125 |  | ≥ 125 |  |  |  | ≥ 125 |  |
| COc1cc2c3c(c1O)-c1c(ccc(OC)c1OC)C[C@@H]3N(C)CC2 [compound 12, corydine] | 250 (≈ 732 µM) |  | ≥ 500 | ≥ 1470 |  |  |  | ≥ 500 |  | 62.5 (≈ 183 µM) |  |  |  | 250 (≈ 732 µM) |  |
| COc1cc2c(cc1OC)-c1c(OC)c(OC)cc3c1[C@H](C2)N(C)CC3 [compound 11, glaucine] | 62.5 (≈ 176 µM) |  |  |  |  |  |  | ≥ 250 |  | 125 (≈ 352 µM) |  | 125 | ≥ 352 | 125 (≈ 352 µM) |  |
